Results taken from ChEMBL document CHEMBL3763050, “Fragment-Based Discovery of 2-Aminoquinazolin-4(3H)-ones As Novel Class Nonpeptidomimetic Inhibitors of the Plasmepsins I, II, and IV” (J Med Chem, 2016).

Tests used:
Plasmepsin II = Plasmepsin II (Plasmodium falciparum, UniProt P46925); assay: Inhibition of Plasmodium falciparum plasmepsin 2 preincubated for 30 mins followed by DABCYL-Glu-Arg-Nle-Phe-Leu-Ser-Phe-Pro-EDANS substrate addition by FRET assay
[1] = Inhibition of Plasmodium falciparum plasmepsin 4 preincubated for 30 mins followed by DABCYL-Glu-Arg-Nle-Phe-Leu-Ser-Phe-Pro-EDANS substrate addition by FRET assay
Plasmepsin I = Plasmepsin I (Plasmodium falciparum, UniProt P39898); assay: Inhibition of Plasmodium falciparum plasmepsin 1 preincubated for 30 mins followed by DABCYL-Glu-Arg-Nle-Phe-Leu-Ser-Phe-Pro-EDANS substrate addition by FRET assay
Sequence of Plasmepsin I (P39898 whole entry): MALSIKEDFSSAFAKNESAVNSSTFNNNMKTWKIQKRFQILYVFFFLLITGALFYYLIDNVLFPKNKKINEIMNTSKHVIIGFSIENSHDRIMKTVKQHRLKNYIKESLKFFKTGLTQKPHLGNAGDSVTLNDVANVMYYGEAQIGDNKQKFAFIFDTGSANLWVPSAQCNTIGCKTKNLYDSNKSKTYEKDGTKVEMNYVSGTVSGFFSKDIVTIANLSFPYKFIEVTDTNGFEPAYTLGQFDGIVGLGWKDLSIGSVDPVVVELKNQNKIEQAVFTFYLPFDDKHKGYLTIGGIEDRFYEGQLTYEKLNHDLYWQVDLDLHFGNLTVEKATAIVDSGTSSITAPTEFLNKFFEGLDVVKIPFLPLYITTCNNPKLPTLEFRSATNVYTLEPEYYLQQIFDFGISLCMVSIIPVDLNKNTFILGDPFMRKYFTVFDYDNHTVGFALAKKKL

Cathepsin D = Cathepsin D (Homo sapiens, UniProt P07339); assay: Inhibition of CatD (unknown origin) preincubated for 30 mins followed by DABCYL-Glu-Arg-Nle-Phe-Leu-Ser-Phe-Pro-EDANS substrate addition by FRET assay
Sequence of Cathepsin D (P07339 65-162 limits assumed): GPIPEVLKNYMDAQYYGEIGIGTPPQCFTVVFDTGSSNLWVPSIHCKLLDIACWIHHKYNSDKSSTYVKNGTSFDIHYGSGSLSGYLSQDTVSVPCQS
Sequence of Cathepsin D (P07339 169-412 limits assumed): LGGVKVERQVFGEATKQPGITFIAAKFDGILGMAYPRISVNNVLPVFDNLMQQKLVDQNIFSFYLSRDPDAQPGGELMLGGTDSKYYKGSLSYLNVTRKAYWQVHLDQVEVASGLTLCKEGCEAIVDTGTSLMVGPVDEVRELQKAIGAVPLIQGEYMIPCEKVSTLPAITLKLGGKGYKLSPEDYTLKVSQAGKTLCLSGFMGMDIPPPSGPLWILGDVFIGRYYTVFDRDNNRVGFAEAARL

Plasmodium falciparum = assay: Antimalarial activity against Plasmodium falciparum 3D7 after 96 hrs by SYBR Green 1 assay; format: functional, organism-based; settings: 3D7, 96 h

Sequence of Plasmepsin II (P46925 whole entry): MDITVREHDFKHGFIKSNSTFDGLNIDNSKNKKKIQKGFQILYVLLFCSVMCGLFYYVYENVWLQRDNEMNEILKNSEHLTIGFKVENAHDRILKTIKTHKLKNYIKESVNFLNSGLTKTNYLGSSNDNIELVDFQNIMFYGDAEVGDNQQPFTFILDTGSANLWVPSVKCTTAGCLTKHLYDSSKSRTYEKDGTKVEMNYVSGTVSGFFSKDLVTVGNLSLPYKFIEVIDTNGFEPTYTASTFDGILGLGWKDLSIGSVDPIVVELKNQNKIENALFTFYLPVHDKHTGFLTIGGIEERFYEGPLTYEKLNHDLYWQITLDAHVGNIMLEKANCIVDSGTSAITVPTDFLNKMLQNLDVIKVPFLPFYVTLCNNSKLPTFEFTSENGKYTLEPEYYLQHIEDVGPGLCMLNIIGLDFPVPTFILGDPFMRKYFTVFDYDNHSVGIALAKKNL

SMILES | IC50 (Plasmepsin II) [µM] | IC50 [1] [µM] | IC50 (Plasmepsin I) [µM] | IC50 (Cathepsin D) [µM] | EC50 (Plasmodium falciparum) [µM]
Nc1nc2cc(-c3ccccc3)ccc2c(=O)n1C[C@@H]1CC[C@H](c2ccccc2)O1 | 3 | 2.7 | 4.6 | 22 | –
CCCCc1ccc(-c2ccc3c(=O)n(C[C@@H]4CC[C@H](c5ccccc5)O4)c(N)nc3c2)cc1 (racemic) | 0.23 | 0.2 | 0.3 | 2.2 | 0.9
Nc1nc2cc(-c3ccc(CCc4ccccc4)cc3)ccc2c(=O)n1C[C@@H]1CC[C@H](c2ccccc2)O1 (racemic) | 2 | 0.7 | 2 | 220 | –
Nc1nc2cc(-c3ccc(CCCc4ccccc4)cc3)ccc2c(=O)n1C[C@@H]1CC[C@H](c2ccccc2)O1 (racemic) | 10 | 0.13 | 3.2 | 6 | 1.2
Nc1nc2cc(-c3ccccc3)ccc2c(=O)n1CC1CCC2(CCCCC2)O1 (racemic) | 5.3 | 3 | 2 | 9 | –
Nc1nc2cc(-c3ccccc3)ccc2c(=O)n1C[C@@H]1CC[C@H](c2ccc3ccccc3c2)O1 (racemic) | 2.5 | 1.3 | 3.7 | 19.5 | –
CCCCCc1ccc(-c2ccc3c(=O)n(C[C@@H]4CC[C@H](c5ccccc5)O4)c(N)nc3c2)cc1 (racemic) | 0.15 | 0.1 | 0.3 | 5 | 1.1
CC(C)CCc1ccc(-c2ccc3c(=O)n(C[C@@H]4CC[C@H](c5ccccc5)O4)c(N)nc3c2)cc1 (racemic) | 0.6 | 0.4 | 1.4 | > 100 | –
Nc1nc2cc(-c3ccccc3)ccc2c(=O)n1C[C@@H]1CC[C@@H](c2ccccc2)O1 (racemic) | 2.9 | 1.1 | 2.4 | 9 | –
CC(C)[C@H]1CC[C@@H](Cn2c(N)nc3cc(-c4ccccc4)ccc3c2=O)O1 (racemic) | 1.6 | 1.5 | 2.3 | 25 | –

Other lines, results leading:

IC50 (Plasmepsin II) [µM] | IC50 [1] [µM] | IC50 (Plasmepsin I) [µM] | IC50 (Cathepsin D) [µM] | EC50 (Plasmodium falciparum) [µM] | SMILES
0.34 | 0.5 | 1.2 | 4.6 | – | Nc1nc2cc(-c3ccccc3)ccc2c(=O)n1C[C@H]1CC[C@@H](c2ccccc2)O1
12.5 | 20 | 52 | > 200 | – | Nc1nc2cc(-c3ccccc3)ccc2c(=O)n1CC1CC(c2ccccc2)CO1 (mixture of isomers)
2.4 | 0.8 | 0.5 | 8.6 | – | Nc1nc2cc(-c3ccc(C4CCCCC4)cc3)ccc2c(=O)n1C[C@@H]1CC[C@H](c2ccccc2)O1 (racemic)
32 | 0.4 | 6.5 | 91 | 3.9 | Nc1nc2cc(-c3ccc(CCCCc4ccccc4)cc3)ccc2c(=O)n1C[C@@H]1CC[C@H](c2ccccc2)O1 (racemic)
12 | 2 | 36 | 52 | – | Nc1nc2cc(-c3ccc(CCCCCc4ccccc4)cc3)ccc2c(=O)n1C[C@@H]1CC[C@H](c2ccccc2)O1 (racemic)
0.57 | 0.6 | 1.3 | 13.8 | – | Nc1nc2cc(-c3ccccc3)ccc2c(=O)n1C[C@@H]1CC[C@H](c2ccccc2)O1 (racemic)
10.7 | 1.2 | 9.4 | 100 | – | Nc1nc2cc(-c3ccc(CCC4CCCCC4)cc3)ccc2c(=O)n1C[C@@H]1CC[C@H](c2ccccc2)O1 (racemic)
2.3 | 1.3 | 6 | 53.4 | – | Nc1nc2cc(-c3ccccc3)ccc2c(=O)n1C[C@@H]1CCCO1 (racemic)
2 | 1 | 0.8 | 3 | – | CCCCc1cccc(-c2ccc3c(=O)n(C[C@@H]4CC[C@H](c5ccccc5)O4)c(N)nc3c2)c1 (racemic)
2.6 | 0.4 | 0.27 | 1.4 | – | COC(=O)CCc1ccc(-c2ccc3c(=O)n(C[C@@H]4CC[C@H](c5ccccc5)O4)c(N)nc3c2)cc1 (racemic)
0.4 | 0.3 | 0.48 | 3.2 | – | Nc1nc2cc(-c3ccc(CCC4CC4)cc3)ccc2c(=O)n1C[C@@H]1CC[C@H](c2ccccc2)O1 (racemic)
